Assay results: ChEMBL document CHEMBL1132172, “Synthesis of a series of stromelysin-selective thiadiazole urea matrix metalloproteinase inhibitors” (J Med Chem, 1999)
pIC50, pKi: −log10 of the molar value.

molecular target: Stromelysin-1 (Homo sapiens, UniProt P08254)
Sequence (P08254 whole entry): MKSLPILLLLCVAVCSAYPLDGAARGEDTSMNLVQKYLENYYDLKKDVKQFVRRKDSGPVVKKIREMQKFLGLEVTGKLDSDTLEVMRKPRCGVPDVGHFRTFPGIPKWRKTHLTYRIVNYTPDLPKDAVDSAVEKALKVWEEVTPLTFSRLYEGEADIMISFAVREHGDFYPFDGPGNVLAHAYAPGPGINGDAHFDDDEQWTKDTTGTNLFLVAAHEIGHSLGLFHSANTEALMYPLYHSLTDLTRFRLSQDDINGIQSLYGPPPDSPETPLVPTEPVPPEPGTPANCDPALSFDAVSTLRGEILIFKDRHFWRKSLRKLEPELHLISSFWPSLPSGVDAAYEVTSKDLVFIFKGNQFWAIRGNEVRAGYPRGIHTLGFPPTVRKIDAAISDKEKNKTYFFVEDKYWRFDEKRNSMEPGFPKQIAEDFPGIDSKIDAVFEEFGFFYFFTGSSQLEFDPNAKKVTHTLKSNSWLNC
Description: Inhibitory concentration against Matrix metalloprotease-3

Structure (SMILES)	pIC50
Sc1nnc(NCc2ccccc2)s1	4.01
O=C(NCc1ccccc1)Nc1nncs1	< 2.70
O=C(NCc1cccc2ccccc12)Nc1nnc(S)s1	4.64
Sc1nnc(Nc2ccccc2)s1	3.72
O=C(Nc1ccc(F)cc1)Nc1nnc(S)s1	4.54
Sc1nnc(NCCCCc2ccccc2)s1	3.50
Sc1nnc(NCCc2ccccc2)s1	4.33
CCN(C(=O)NCCc1ccccc1)c1nnc(S)s1	< 3.00
Cn1nc(NC(=O)NCCc2ccccc2)sc1=S	3.16
Sc1nnc(NCc2ccco2)s1	3.54
CCNc1nnc(S)s1	< 2.70
O=C(NCCCCc1ccccc1)Nc1nnc(S)s1	4.47
Cc1cccc(Cl)c1Nc1nnc(S)s1	3.76
O=C(Nc1ccccc1)Nc1nnc(S)s1	4.00
CCCCCCCCCCCCNc1nnc(S)s1	4.01

molecular target: T1, Interstitial collagenase (Homo sapiens, UniProt P03956)
T1 sequence (P03956 whole entry): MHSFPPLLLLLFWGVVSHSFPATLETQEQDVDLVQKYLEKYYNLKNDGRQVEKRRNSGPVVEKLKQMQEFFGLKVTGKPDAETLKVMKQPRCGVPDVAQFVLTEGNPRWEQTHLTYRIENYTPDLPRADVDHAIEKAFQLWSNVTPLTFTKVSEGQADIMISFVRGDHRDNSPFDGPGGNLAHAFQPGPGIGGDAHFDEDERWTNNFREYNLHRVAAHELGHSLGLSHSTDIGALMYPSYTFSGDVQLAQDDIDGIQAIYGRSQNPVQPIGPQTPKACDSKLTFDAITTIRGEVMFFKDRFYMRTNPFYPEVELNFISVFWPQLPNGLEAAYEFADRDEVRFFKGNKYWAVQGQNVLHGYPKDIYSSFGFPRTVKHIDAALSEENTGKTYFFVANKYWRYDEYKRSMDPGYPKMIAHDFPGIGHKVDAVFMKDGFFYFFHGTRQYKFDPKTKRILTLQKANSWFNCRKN
Description: Binding affinity for matrix metalloprotease-1

Structure (SMILES)	pKi
CNC(=O)[C@H](Cc1ccccc1)NC(=O)Nc1nnc(S)s1	4.51
CNC(=O)[C@H](CC(C)C)NC(=O)Nc1nnc(S)s1	< 3.70
CNC(=O)[C@H](CO)NC(=O)Nc1n[nH]c(=S)s1	< 3.70
COc1ccc(N2CCN(C(=O)[C@H](Cc3ccccc3)NC(=O)Nc3nnc(S)s3)CC2)cc1	5.22
COc1ccc(CNC(=O)[C@H](Cc2ccccc2)NC(=O)Nc2nnc(S)s2)cc1OC	5.21
O=C(Nc1nnc(S)s1)N[C@@H](Cc1ccccc1)C(=O)N1CCSCC1	4.92
O=C(Nc1nnc(S)s1)N[C@@H](Cc1ccccc1)C(=O)O	< 3.70
O=C(Nc1nnc(S)s1)N[C@@H](Cc1ccccc1)C(=O)N1CCCC1	4.70
CNC(=O)[C@H](Cc1c(F)c(F)c(F)c(F)c1F)NC(=O)Nc1nnc(S)s1	5.52
O=C(Nc1nnc(S)s1)N[C@@H](Cc1ccccc1)C(=O)N1CCN(Cc2ccccc2)CC1	4.54
O=C(Nc1nnc(S)s1)N[C@@H](Cc1ccccc1)C(=O)N1CCN(c2ccccn2)CC1	5.82
CNC(=O)[C@H](Cc1ccc(O)cc1)NC(=O)Nc1nnc(S)s1	4.68
O=C(Nc1nnc(S)s1)N[C@@H](Cc1ccccc1)C(=O)NCC1CCCCC1	< 3.70
CNC(=O)[C@H](Cc1ccc(OC)cc1)NC(=O)Nc1nnc(S)s1	4.80
O=C(Nc1nnc(S)s1)N[C@@H](Cc1ccc(F)cc1)C(=O)N1CCN(c2ccccn2)CC1	5.74
O=C(Nc1nnc(S)s1)N[C@@H](Cc1c(F)c(F)c(F)c(F)c1F)C(=O)N1CCN(c2ccccn2)CC1	6.11
COC(=O)[C@H](Cc1ccccc1)NC(=O)Nc1nnc(S)s1	4.77
NC(=O)[C@H](Cc1ccccc1)NC(=O)Nc1nnc(S)s1	< 3.70
O=C(Nc1nnc(S)s1)N[C@@H](Cc1ccccc1)C(=O)N1CCN(c2ncccn2)CC1	4.80
O=C(Nc1nnc(S)s1)N[C@@H](Cc1ccccc1)C(=O)NCc1ccccc1	4.82
CNC(=O)[C@@H](Cc1ccccc1)NC(=O)Nc1n[nH]c(=S)s1	< 3.70
CNC(=O)[C@H](CC1CCCCC1)NC(=O)Nc1n[nH]c(=S)s1	4.17
CNC(=O)[C@@H](NC(=O)Nc1n[nH]c(=S)s1)c1ccccc1	4.39
CNC(=O)CNC(=O)Nc1n[nH]c(=S)s1	< 4.00
CN(C)C(=O)[C@H](Cc1ccccc1)NC(=O)Nc1nnc(S)s1	3.65
CNC(=O)[C@H](COCc1ccccc1)NC(=O)Nc1nnc(S)s1	4.28
CNC(=O)[C@H](Cc1ccc(F)cc1)NC(=O)Nc1nnc(S)s1	5.05
O=C(Nc1nnc(S)s1)N[C@@H](Cc1ccccc1)C(=O)N1CCOCC1	4.49
CNC(=O)[C@H](Cc1ccc([N+](=O)[O-])cc1)NC(=O)Nc1nnc(S)s1	4.82
